Publication PMC3285689, “Structure Based Design and Synthesis of Peptide Inhibitor of Human LOX-12: In Vitro and In Vivo Analysis of a Novel Therapeutic Agent for Breast Cancer” (PLoS ONE, 2012)
“And” between values parts separate entries of the source, which are not always exact repeats. Identical values can stand only once. “Also recorded” adds a separate entry of the source. Like-named read-outs stand apart in the source and are kept apart here. One block for each molecule: values may come before it. Where a SMILES comes first, the peptide text is derived from it.

Columns and labels:
LOX-12 [1] = target: T1, LOX-12 (Homo sapiens, UniProt P18054); test: Inhibition of human LOX-12 activity, spectrophotometric screen; type: biochemical; conditions: LOX-12 incubated with peptide 30 min; arachidonic acid, 0.2% Tween-20, 50 mM potassium phosphate pH 7.2; absorbance 269 nm; average of triplicates; inhibitor concentration not given
T1 construct: made in house; host or cells: E. coli BL21 codon+ (pET28a)
T1 sequence (P18054 1-663): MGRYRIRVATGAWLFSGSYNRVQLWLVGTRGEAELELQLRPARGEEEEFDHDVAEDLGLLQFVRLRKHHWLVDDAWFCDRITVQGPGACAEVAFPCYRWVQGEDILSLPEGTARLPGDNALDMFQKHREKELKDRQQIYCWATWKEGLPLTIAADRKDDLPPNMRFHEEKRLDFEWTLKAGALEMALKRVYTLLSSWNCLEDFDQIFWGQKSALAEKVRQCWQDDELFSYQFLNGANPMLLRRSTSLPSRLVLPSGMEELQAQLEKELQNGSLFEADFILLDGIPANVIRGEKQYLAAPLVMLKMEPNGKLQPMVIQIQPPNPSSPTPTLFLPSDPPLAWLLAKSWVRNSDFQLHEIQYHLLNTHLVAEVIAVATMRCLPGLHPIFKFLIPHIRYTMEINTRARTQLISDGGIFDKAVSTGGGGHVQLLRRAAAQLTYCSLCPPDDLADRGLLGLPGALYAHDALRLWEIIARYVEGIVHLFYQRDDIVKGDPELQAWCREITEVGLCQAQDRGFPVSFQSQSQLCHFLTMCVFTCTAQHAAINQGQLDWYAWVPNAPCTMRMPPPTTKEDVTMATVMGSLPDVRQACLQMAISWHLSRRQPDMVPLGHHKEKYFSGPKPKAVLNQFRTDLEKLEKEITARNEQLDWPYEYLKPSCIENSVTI
Protocol: For inhibition study, the human LOX-12 was incubated with peptide for 30 min, which was then added to the reaction buffer containing arachidonic acid (substrate), 0.2% Tween-20, 50 mM potassium phosphate buffer pH 7.2. The change in absorbance was monitored at 269 nm and the percentage of inhibition was calculated. A control reaction was always carried out without any peptide inhibitor to ensure the activity of protein under experimental conditions.
The activity assay for LOX-12 in presence of 10 different peptides with substrate was performed by using spectrophotometer. The assay was performed at 269 nm which gives the absorption maxima for the product LTB4.

LOX-12 [2] = target: T1, LOX-12; test: Kinetic assay of LOX-12 inhibition (Michaelis-Menten, competitive Ki); type: biochemical
Protocol: For kinetic assay, the above experiment was done with four different concentrations of peptides (25–100 µM). For each concentration of peptide the experiment was repeated with six different concentrations (20–120 µM) of substrate, arachidonic acid. The enzyme concentration was constant (1.0 µM) throughout the assay. The competitive kinetic constant (Ki) was calculated graphically using the Michaelis-Menton equation in graphpad prism software. The graph of activity vs. concentration of arachidonic acid was plotted.
Competitive kinetic constant of the best peptide YWCS was calculated using graphpad prism software.

LOX-12 [3] = target: T1, LOX-12; test: SPR binding of peptides to immobilized His-LOX-12 (BIAcore 2000); conditions: His-LOX-12 on Ni2+-NTA chip, analyte 25, 50, 75 µM, flow 10 µl/min, BIA evaluation 3.0, read-out: Dissociation constant KD
human red blood cells = test: Hemolysis of human red blood cells; type: cell-based; conditions: concentration upto 358 µM; hRBC 1% (v/v) in PBS pH 7.0, 1 h at 37°C, absorbance 541 nm, triplicate
Protocol: The effect of peptide on hemolysis was determined by using human red blood cells (hRBC from volunteer). The freshly collected hRBC were centrifuged for 10 mins to remove the buffy coat and washed with phosphate buffered saline (PBS: 35 mM Na2HPO4, pH 7.0 and 150 mM NaCl). 100 µl of the hRBC (suspended in 1% (v/v) in PBS) and 10 µl peptide solution were added into the sterile 96 well plates in triplicate. The plates were incubated for 1 h at 37°C and centrifuged at 1000× g for 5 mins. The supernatant were transferred to fresh 96 well plates, where hemoglobin released was monitored by measuring the absorbance spectrophotometrically at 541 nm. Similar steps were carried out for Gentamycin, as a control. The percentage of hemolysis (determined in PBS and 0.1% Triton X-100) was calculated from the standard graph which was plotted with % hemolysis of prepared RBCs vs optical densities.
The haemolytic activity of the peptide was determined to ensure the toxicity to erythrocytes using human RBCs. The concentration upto 358 µM of the peptide lysed only 22% human erythrocytes ( Figure 2 ).

MCF-7 cells = test: Annexin-V binding apoptosis assay by flow cytometry, MCF-7; type: cell-based, human; conditions: 72 h, annexin-V/PI flow cytometry
Protocol: The frequency of apoptosis in MCF7 cells and MDA-MB-231 by the treatment with YWCS was assayed by annexin-V binding assay. Briefly, MCF7 cells and MDA-MB-231 were pulsed with the peptide for 72 h. After termination of the culture, cells were stained with annexin-V apoptosis detection kit (Biolegend) according to the manufacturer's instructions. The cells were washed twice with PBS, and resuspended in annexin-V binding buffer. To the cell suspension, 5 µl of FITC-conjugated annexin-V (Biolegend) and 10 µl of propidium iodide (PI) (50 µg/ml) solution were added and further incubated for 15 min at room temperature. About 10,000 events were acquired in FACS Canto flow cytometer (Becton–Dickinson, USA). The frequency of annexin-positive (apoptotic) cells was determined using BD FACSDiva software.
The apoptotic activity of the peptide YWCS was performed using annexin-V binding assay. Apoptosis induction was observed as early as 72 h.

MDA-MB-231 cells = test: Annexin-V binding apoptosis assay by flow cytometry, MDA-MB-231; type: cell-based, human; conditions: 72 h, annexin-V/PI flow cytometry
[4] = tested on: Ehrlich's Ascites Tumor cell line (EAT) (murine breast carcinoma); test: Antitumor activity in Swiss albino mice implanted with EAT tumor cell line; type: in vivo
Protocol: In-vivo animal experimentation of peptide for anticancer activity was done using mice model. Swiss albino mice were obtained from Central animal facility, AIIMS at 55–65 days of age. The animals were housed in polycarbonated cages, bedded with husk. The animal facility was environmentally controlled; mice were maintained at normal room temperature with suitable relative humidity and 12 h light, 12 h dark cycle. Animals were fed chow food and purified water ad libitum throughout the study. Animals were randomized into 5mice per cage in 3 groups (Group I, II and III) for the study.
Ehrlich's Ascites Tumor cell line (EAT) (murine breast carcinoma), was used for tumor induction. The cell line was maintained in-vivo by passaging weekly intraperitonealy (i.p) from mice to mice. For tumor induction, 14 million cells approximately 150 µl volumes was injected to the animal in a group subcutaneously on the dorsal side of the body (back) and kept under observation for tumor onset.
Tumor size was recorded by vernier calipers and tumor volume was calculated using the formula: V = 0.5×L×W^2, where L is the length (long axis) and W is the width (short axis).
In Group I (control, untreated) only tumor cell line was administered. In group II, YWCS peptide was administered when the tumor volume reached 0.22±0.10 cm^3 on day 10, at a dose of […] intravenously (i.v) per mouse once daily for 20 days from day 11 to day 30. In group III, same concentration of peptide was injected intravenously (i.v) simultaneously after injecting tumor cells subcutaneously on day one. During experimental period mice were under observation till sacrificed.

MCF-7 = conditions: MCF-7, MTT, 72 h
Protocol: (§1) Cytotoxic effect of LOX-12 inhibitory peptides was analyzed on MCF-7 (ER+) and MDA-MB-231 (ER+) breast cancer cell lines by MTT [3-(4, 5-dimethylthiazol-2-yl)-2, 5-diphenyltetrazolium bromide] dye reduction assay. Briefly, 3×10^3 cells/100 µl media were seeded in 96-well plates 24 h before the experiment. The cells were then incubated with different concentrations of the peptides for 24, 48 and 72 h as indicated. The cells were treated with DMSO (same concentration as used to solubilise the peptide) which was then subtracted from all the cytotoxic values.10 µl/well MTT-solution (10 mg/ml in PBS) was then added and plates were further incubated for 3 h at 37°C. The formazan crystals formed were dissolved by adding 100 µl/well of dimethyl sulfoxide (DMSO). Absorbance was measured by a microplate reader at 570 nm with a reference filter 650 nm. 100 µl of medium with 10 µl of MTT stock-solution and 100 µl of DMSO was used as a blank solution to correct the background. The data obtained was presented as percentage viability in the best-fit (linear) dose response curve. The IC50 values at 95% confidence intervals was calculated for all cell lines. Each concentration was used in triplicate. The peptide AIRS was used as a negative control.
(§2) MCF-7 cells were treated with 0–150 µM (0.05% DMSO as a vehicle control) and MDA-MB-231 was treated with 0–500 µM (0.05% DMSO as a vehicle control) of the LOX-12 inhibitory peptides for 24, 48 and 72 h to perform the cytotoxic activity.

MDA-MB-231 = conditions: 72 h; for percentage of cell viability: MDA-MB-231, MTT
Protocol: as §1, §2

human LOX-12 (human) [5] = target: T2, human LOX-12 (human) (UniProt P18054)
T2 sequence: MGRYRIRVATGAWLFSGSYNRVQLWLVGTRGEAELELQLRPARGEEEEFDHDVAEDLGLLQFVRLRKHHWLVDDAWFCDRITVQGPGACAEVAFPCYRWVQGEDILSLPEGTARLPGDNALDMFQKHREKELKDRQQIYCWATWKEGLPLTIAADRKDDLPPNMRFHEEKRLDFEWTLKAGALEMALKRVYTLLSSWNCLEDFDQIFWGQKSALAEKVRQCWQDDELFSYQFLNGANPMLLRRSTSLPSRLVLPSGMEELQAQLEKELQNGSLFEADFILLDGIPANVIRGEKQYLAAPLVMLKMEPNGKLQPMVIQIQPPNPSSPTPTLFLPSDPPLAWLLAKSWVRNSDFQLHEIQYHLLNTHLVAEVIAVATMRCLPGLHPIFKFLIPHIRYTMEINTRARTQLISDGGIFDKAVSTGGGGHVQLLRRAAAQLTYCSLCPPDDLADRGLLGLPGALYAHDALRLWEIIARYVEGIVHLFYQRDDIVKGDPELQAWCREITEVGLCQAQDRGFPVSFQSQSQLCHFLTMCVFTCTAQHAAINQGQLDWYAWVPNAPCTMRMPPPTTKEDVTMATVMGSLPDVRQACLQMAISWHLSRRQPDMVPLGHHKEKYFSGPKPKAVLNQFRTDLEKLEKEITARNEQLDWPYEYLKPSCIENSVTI

human LOX-12 (human) [6] = target: T2, human LOX-12 (human); remark: listed apart in the source
human LOX-12 (human) [7] = target: T2, human LOX-12 (human); test: enzyme inhibition kinetics (spectrophotometric); 1.0 µM LOX-12 incubated with peptide (25-100 µM) for 30 min; arachidonic acid 20-120 µM, 0.2% Tween-20, 50 mM potassium phosphate pH 7.2; absorbance at 269 nm; competitive Ki from the Michaelis-Menten equation (GraphPad Prism)

Molecule: N[C@@H](Cc1ccc(O)cc1)C(=O)N[C@@H](Cc1c[nH]c2ccccc12)C(=O)N[C@@H](CS)C(=O)N[C@@H](CO)C(=O)O [YWCS] (H-YWCS-OH)
% inhibition (LOX-12 [1]): 86.1%
Mode of inhibition (LOX-12 [2]; linearised analysis of Michaelis-Menten data, in presence of substrate arachidonic acid): competitive mode of inhibition
Ki (LOX-12 [2]; peptide 25-100 µM, arachidonic acid 20-120 µM, enzyme 1.0 µM, Michaelis-Menten fit in graphpad prism, read-out: Competitive kinetic constant Ki): 7.25 µM
Kd (LOX-12 [3]): 33.9 nM
Percentage of hemolysis of human erythrocytes (human red blood cells): 22%
mean percentage apoptotic cells (MCF-7 cells; MCF-7, 50 µM): 41.2±5.8%
mean percentage apoptotic cells (MCF-7 cells; MCF-7, 75 µM): 49.8% and 49.8±6.5%
mean percentage apoptotic cells (MCF-7 cells; MCF-7, 100 µM): 58.3±7.5%
mean percentage apoptotic cells (MDA-MB-231 cells; MDA-MB-231, 350 µM): 15.0±1.2%
mean percentage apoptotic cells (MDA-MB-231 cells; MDA-MB-231, 400 µM): 20.8% and 20.8±3.2%
mean percentage apoptotic cells (MDA-MB-231 cells; MDA-MB-231, 450 µM): 22.1±1.5%
Tumor volume, Day 20 ([4]; Group II, 200 µmol i.v. per mouse once daily from day 11 to day 30, control 2.09±0.06): 1.62±0.49 cm^3
Tumor volume, Day 30 ([4]; Group II, 200 µmol i.v. per mouse once daily from day 11 to day 30, control 4.5±0.24): 3.04±1.06 cm^3
Size of liver and spleen in sacrificed animals ([4]; Group II, peptide treated for 20 days, control Group I showed the same): liver and spleen enlargement
Tumor volume, Day 20 ([4]; Group III, 200 µmol peptide i.v. simultaneously after injecting EAT cells s.c. on day one): No tumor was observed; also recorded: No tumor onset
percentage cell viability (MCF-7; 25 µM): 88.6%
percentage cell viability (MCF-7; 50 µM): 85.7%
percentage cell viability (MCF-7; 100 µM): 31.2%
percentage cell viability (MCF-7; 150 µM): 21.1%
IC50 (MCF-7; read-out: IC50 (cell viability), triplicate): 75 µM
IC50 (MDA-MB-231): 400 µM
percentage of cell viability (MDA-MB-231; 50 µM): 92%
percentage of cell viability (MDA-MB-231; 100 µM): 87.46%
percentage of cell viability (MDA-MB-231; 150 µM): 80.36%
percentage of cell viability (MDA-MB-231; 200 µM): 72.51%
percentage of cell viability (MDA-MB-231; 350 µM): 54.76%
percentage of cell viability (MDA-MB-231; 400 µM): 48.19%
percentage of cell viability (MDA-MB-231; 500 µM): 43.07%

Molecule: AIYW
% inhibition (LOX-12 [1]): 69.3%

Molecule: FWCS
% inhibition (LOX-12 [1]): 74.2%

Molecule: FWY (peptide)
% inhibition of LOX-12 enzyme activity (arachidonic acid substrate, absorbance at 269 nm) (human LOX-12 (human) [5]): 80.4%

Molecule: FYS (peptide)
% inhibition of LOX-12 enzyme activity (arachidonic acid substrate, absorbance at 269 nm) (human LOX-12 (human) [5]): 79.8%

Molecule: WFA (peptide)
% inhibition of LOX-12 enzyme activity (arachidonic acid substrate, absorbance at 269 nm) (human LOX-12 (human) [5]): 73.5%

Molecule: WKS (peptide)
% inhibition of LOX-12 enzyme activity (arachidonic acid substrate, absorbance at 269 nm) (human LOX-12 (human) [5]): 53.2%

Molecule: YWG (peptide)
% inhibition of LOX-12 enzyme activity (arachidonic acid substrate, absorbance at 269 nm) (human LOX-12 (human) [5]): 71.6%

Molecule: YWCS
% inhibition of LOX-12 enzyme activity (arachidonic acid substrate, absorbance at 269 nm) (human LOX-12 (human) [5]): 86.1%
% inhibition of LOX-12 enzyme activity (arachidonic acid substrate, absorbance at 269 nm) (human LOX-12 (human) [6]): 80%
Ki (human LOX-12 (human) [7]): 7.25 µM

Molecule: FWCS
% inhibition of LOX-12 enzyme activity (arachidonic acid substrate, absorbance at 269 nm) (human LOX-12 (human) [5]): 74.2%

Other lines, results leading:

% inhibition (LOX-12 [1]): 85.1%
Molecule: O=c1cc(-c2ccccc2)oc2cc(O)c(O)c(O)c12 [Baicalein, reference compound]

% inhibition of LOX-12 enzyme activity (arachidonic acid substrate, absorbance at 269 nm) (human LOX-12 (human) [5]): 72.1%
Molecule: WFC (peptide)

% inhibition of LOX-12 enzyme activity (arachidonic acid substrate, absorbance at 269 nm) (human LOX-12 (human) [5]): 73.2%
Molecule: YW (peptide)

% inhibition of LOX-12 enzyme activity (arachidonic acid substrate, absorbance at 269 nm) (human LOX-12 (human) [5]): 69.3%
Molecule: AIYW
